Measured values as given in article PMC7198766, “Structure-Activity Studies on the Hypertrehalosemic Hormone II of the Stick Insect Carausius morosus (Phasmatodea): Carbohydrate-Mobilization and Cardio-Stimulatory Activities” (Frontiers in Physiology, 2020).
Where “and” joins values, the source holds several entries; their conditions need not be identical. Equal entries are not always repeated. Marks after values point to notes of the source that are not given here.

Experiments:
[1] = test system: heart of neck-ligated Carausius morosus; design: method as in Marco et al., 2018; details: ref Marco et al., 2018, cited from earlier work
[2] = test system: ligated 6th instar Indian stick insects (Carausius morosus); assay: Carbohydrate-mobilization (hypertrehalosemic) in vivo assay; details: for % Activity relative to the effect of Carmo-HrTH-II (metabolic): 20 pmol peptide injected, carbohydrate increase relative to Carmo-HrTH-II = 100, NS = no significant increase; for Hemolymph carbohydrates, 90 min: 90 min after injection of 20 pmol peptide in 10 μl; for Hemolymph carbohydrates, 90 min / Hemolymph carbohydrates, Difference: neck-ligated 6th instar nymphs; for Hemolymph carbohydrates, Difference: 90 min minus 0 min, 20 pmol peptide in 10 μl injected; for Hemolymph carbohydrates, 0 min: before injection (0 min), 2 h after neck ligation, group later given 20 pmol peptide in 10 μl, 6th instar nymphs
Description: Sixth instar nymphs that were 1–2 days before molting were neck-ligated and used in the hypertrehalosemic in vivo assay as described in detail by [Gäde and Lohr (1982)]. Stock peptide solutions (5 pmol μl^–1) were diluted with distilled water to the desired concentration in 10 μl, which was injected into the stick insect nymphs.
In the first series of experiments, various doses of synthetic Carmo-HrTH-II and corpora cardiaca (CC) extract of C. morosus were used to determine the maximal hypertrehalosemic response of C. morosus. Hemolymph samples were taken from 17 to 18 days old 6th instar nymphs 2 h after they were neck-ligated and then 90 min after either CC extract or synthetic Carmo-HrTH-II was injected. Ligated nymphs injected with distilled water served as controls for handling stress. As depicted in Figures 1A,B, various doses of both Carmo-HrTH-II and CC extract increased the level of carbohydrates in the hemolymph in a dose-dependent manner. A dose of 0.04 pmol of synthetic Carmo-HrTH-II and the equivalent of 0.005 pairs of corpora cardiaca (pCC) were sufficient to give significant increases in hemolymph carbohydrates (p < 0.05). […] Doses of 0.1–0.5 pCC gave an average increase of 5.6 ± 0.6 mg carbohydrates ml^–1 hemolymph (Figure 1B); again, statistical analyses reveal no significant difference between the effect of these doses (p > 0.05).
Based on these pilot experiments, we selected a dose of 20 pmol for testing the analogs of Carmo-HrTH-II since such a dose of our lead compound, Carmo-HrTH-II had achieved maximal hypertrehalosemic activity.

[3] = test system: heart of neck-ligated Carausius morosus; assay: Semi-exposed heart bioassay (heart beat rate); type: in vivo; details: for % Activity relative to the effect of Carmo-HrTH-II (myotropic) / Heart rate, Difference: 20 pmol peptide in 150 μl; for % Activity relative to the effect of Carmo-HrTH-II (myotropic): heart rate increase relative to Carmo-HrTH-II = 100, NS = no significant increase; for Heart rate, Post-application: after application of 20 pmol peptide in 150 μl saline, average of first four counts; for Heart rate, Post-application / Heart rate, Pre-application: neck-ligated stick insects; for Heart rate, Pre-application: in saline before application, semi-exposed heart; for Heart rate, Difference: post- minus pre-application
Description: The semi-exposed heart bioassay was carried out as described ([Marco et al., 2018]) with adult stick insects between 1 and 2 months old that were ligated at the neck. Briefly, a ventral incision of the abdomen exposed the ventral cavity with the internal organs; a few drops of stick insect saline (pH 6.6; 15 mM NaCl, 18 mM KCl, 7.5 mM CaCl2, 2 mM HEPES, 50 mM MgCl2, and 184 mM glucose according to [Ejaz and Lange, 2008]) were added to the exposed part. The semi-isolated heart preparation was viewed with a dissecting microscope (12-fold magnification), and the number of observed heart beats (contractions of the heart muscle) was counted during a fixed period using a manual tally counter and a timer. Once the heart had stabilized, saline was replaced with the test solution. For this the peptide stock solution of 5 pmol μl^–1 was diluted with stick insect saline to the desired concentration and a final volume of 150 μl was used for each test.
Heart rates under normal saline served as controls. The change in heart rate after the application of the test solution was calculated as an average of the first four counts and was compared to the average heart rates counted in saline before the application of the test solution. This comparison of change in heart rates was done for all the peptides tested.

[4] = test system: Blaberus discoidalis; design: method as in Hayes and Keeley, 1990; details: in vivo assay, cockroach B. discoidalis; ref Hayes and Keeley, 1990; cited from earlier work
[5] = test system: Manduca sexta; design: method as in Fox and Reynolds, 1991; Ziegler et al., 1991; details: in vivo assay, ref Fox and Reynolds, 1991, Ziegler et al.; cited from earlier work
[6] = test system: Periplaneta americana; design: method as in Gäde, 1990; details: in vivo assay, P. americana; ref Gäde, 1990; cited from earlier work
[7] = test system: Locusta migratoria; design: method as in Gäde, 1990; details: in vivo assay, L. migratoria; ref Gäde, 1990; cited from earlier work

Compound	Effect on contraction of the heart ([1]; C. morosus heart, dose-dependent)	% Activity relative to the effect of Carmo-HrTH-II (metabolic) [2]	Hemolymph carbohydrates, 90 min [2]	Hemolymph carbohydrates, Difference [2]	Hemolymph carbohydrates, 0 min [2]	Average increase of hemolymph carbohydrates ([2]; doses of 7.5–60 pmol (plateau, no significant difference between doses), 90 min)	Dose sufficient to give significant increases in hemolymph carbohydrates ([2]; synthetic peptide injected, 17-18 days old ligated 6th instar nymphs, 90 min, p < 0.05)	% Activity relative to the effect of Carmo-HrTH-II (myotropic) [3]	Heart rate, Post-application [3]	Heart rate, Pre-application [3]	Heart rate, Difference [3]	Doses that increased the heart beat rate significantly and maximally ([1]; ligated stick insects, synthetic peptide)	Fold less active than the endogenous Bladi-HrTH [4]	Activity relative to the endogenous nonapeptide Manse-AKH [5]	Activity relative to the endogenous octapeptides Peram-CAH-I and -II [6]	Activity relative to the endogenous decapeptide Locmi-AKH-I [7]
NCC(O)c1ccc(O)cc1 (stereo not shown) [octopamine]	inhibits the contraction of the heart	–	–	–	–	–	–	–	–	–	–	–	–	–	–	–
pGlu-Leu-Thr-Phe-Thr-Pro-Asn-Trp-Gly-Thr amide [Carmo-HrTH-II, reference compound]	–	100%	14.9 ± 1.9 mg/mL	5.4 ± 1.1 mg/mL	9.4 ± 1.5 mg/mL	5.2 ± 0.4 mg ml^–1	0.04 pmol	100%	53 ± 5 beats min^−1	41 beats min^−1 and 41 ± 4 beats min^−1	12 ± 5 beats min^−1	above 6.67 × 10^–8 M	more than 300 fold	as, or slightly more active than the endogenous nonapeptide Manse-AKH	more or less as active	only slightly less active
pGlu-Leu-Thr-Phe-Thr-Pro-Asn-Trp-Gly-Thr OH [Carmo-HrTH-II: free C-terminus]	–	30%	10.4 ± 2.2 mg/mL	1.6 ± 1.6 mg/mL	8.8 ± 2.1 mg/mL	–	–	58%	47 ± 3 beats min^−1	40 ± 5 beats min^−1	7 ± 3 beats min^−1	–	–	–	–	–
pGlu-Leu-Asn-Phe-Thr-Pro-Asn-Trp amide [Pyrap-AKH, naturally-occurring AKH octapeptide bioanalog, reference compound]	–	–	9.2 ± 1.8 mg/mL	0.5 ± 1.0 mg/mL	8.7 ± 1.8 mg/mL	–	–	16%	41 ± 4 beats min^−1	39 ± 5 beats min^−1	2 ± 2 beats min^−1	–	–	–	–	–
pGlu-Val-Asn-Phe-Thr-Pro-Asn-Trp-Gly-Thr amide [Rommi-CC, naturally-occurring AKH decapeptide bioanalog, reference compound]	–	48%	10.6 ± 1.6 mg/mL	2.6 ± 1.5 mg/mL	8.0 ± 1.4 mg/mL	–	–	150^b %	57 ± 4 beats min^−1	39 ± 3 beats min^−1	18 ± 6 beats min^−1	–	–	–	–	–
pGlu-Ala-Thr-Phe-Thr-Pro-Asn-Trp-Gly-Thr amide [Ala^2-Carmo-HrTH-II]	–	100%	16.8 ± 1.7 mg/mL	5.4 ± 1.7 mg/mL	11.4 ± 2.3 mg/mL	–	–	–	42 ± 5 beats min^−1	42 ± 7 beats min^−1	0 ± 2 beats min^−1	–	–	–	–	–
